In patent US9890166B2, “Imidazopyrrolidine derivatives and their use in the treatment of disease” (NOVARTIS AG, priority 2013, dated 2018):

What was measured:
MV-4-11 cells = assay: Cell growth inhibition assay (CellTiter-Glo), MV-4-11; details: for GI50: Homo sapiens, MV4-11, read-out: MV-4-11 GI50; for MV-4-11 TGI: MV-4-11 cells, total growth inhibition, CellTiter-Glo;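 on all read-outs here: cellular ATP luminescence after 4 days, 3-fold dilution series from 10 µM top dose, vehicle (0.1% DMSO) set to 100%, cell-free medium set to −100%, day 0 corrected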
[1] = biological target: nuclear BRD4-NUT foci in HCC2494 NUT midline carcinoma cells (Homo sapiens, UniProt O60885); assay: cell-based
K-562 cells = assay: Cell growth inhibition assay (CellTiter-Glo), K-562; details: for GI50: Homo sapiens, K562, read-out: K-562 GI50; for K-562 TGI: K-562 cells, total growth inhibition, CellTiter-Glo;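 on all read-outs here: cellular ATP measured by luminescence after 4 days of exposure, 3-fold dilution series from 10 µM, DMSO vehicle-treated cells define 100%, cell-free medium wells −100%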
BRD3 (His-Brd3(20-477)) = BRD3 (His-Brd3(20-477)) (Homo sapiens (Human), UniProt Q15059); assay: TR-FRET in-vitro binding assay for BRD3; details: single determination or n ≧ 2 independent determinations, read-out: Biochemical IC50 BRD3
Sequence of BRD3 (His-Brd3(20-477)) (Q15059 20-477): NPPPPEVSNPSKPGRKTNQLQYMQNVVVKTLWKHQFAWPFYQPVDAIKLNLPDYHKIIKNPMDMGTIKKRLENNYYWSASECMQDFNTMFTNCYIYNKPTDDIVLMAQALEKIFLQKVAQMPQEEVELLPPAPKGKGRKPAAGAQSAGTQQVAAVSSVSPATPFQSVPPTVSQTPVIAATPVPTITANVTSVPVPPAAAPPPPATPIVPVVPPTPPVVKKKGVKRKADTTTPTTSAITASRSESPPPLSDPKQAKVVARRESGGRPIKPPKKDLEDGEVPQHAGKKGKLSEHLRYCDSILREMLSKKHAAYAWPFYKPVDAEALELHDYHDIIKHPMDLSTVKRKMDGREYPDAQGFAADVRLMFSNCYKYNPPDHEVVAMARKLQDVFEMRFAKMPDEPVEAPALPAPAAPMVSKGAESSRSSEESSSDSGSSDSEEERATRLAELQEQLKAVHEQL
Method in brief: (§1)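 TR-FRET binding with His-tagged bromodomain constructs, 8-point compound dilutions from 10 mM DMSO stocks. Reactions incubated 35 min at 30° C in 13.55 μL, read on an EnVision multilabel reader.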

BRD4 (His-Brd4(44-477)) = BRD4 (His-Brd4(44-477)) (Homo sapiens (Human), UniProt O60885); assay: TR-FRET in-vitro binding assay for BRD4; details: single determination or n ≧ 2 independent determinations, read-out: Biochemical IC50 BRD4
Method in brief: as §1

BRD2 (His-Brd2(60-472)) = BRD2 (His-Brd2(60-472)) (Homo sapiens (Human), UniProt P25440); assay: TR-FRET in-vitro binding assay for BRD2; details: single determination or n ≧ 2 independent determinations, read-out: Biochemical IC50 BRD2
Sequence of BRD2 (His-Brd2(60-472)) (P25440 60-472): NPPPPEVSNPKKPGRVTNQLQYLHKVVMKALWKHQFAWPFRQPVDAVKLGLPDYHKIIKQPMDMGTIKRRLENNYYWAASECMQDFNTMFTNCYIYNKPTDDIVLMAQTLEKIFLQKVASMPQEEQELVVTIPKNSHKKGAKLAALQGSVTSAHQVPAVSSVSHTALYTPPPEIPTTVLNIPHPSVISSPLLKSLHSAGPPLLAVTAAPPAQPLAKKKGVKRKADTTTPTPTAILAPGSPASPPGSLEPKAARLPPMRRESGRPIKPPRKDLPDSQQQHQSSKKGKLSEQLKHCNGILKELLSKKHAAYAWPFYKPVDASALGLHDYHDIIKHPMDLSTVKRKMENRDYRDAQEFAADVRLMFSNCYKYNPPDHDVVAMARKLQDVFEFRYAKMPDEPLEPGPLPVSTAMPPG
Method in brief: as §1

[2] = biological target: CREBBP bromodomain (His-CREBBP(1081-1197)) (Homo sapiens (Human), UniProt Q92793); assay: AlphaScreen in-vitro binding assay for CREBBP; details: single determination or n ≧ 2 independent determinations, read-out: Biochemical IC50 CREBBP
Sequence of CREBBP bromodomain (His-CREBBP(1081-1197)) (Q92793 1081-1197): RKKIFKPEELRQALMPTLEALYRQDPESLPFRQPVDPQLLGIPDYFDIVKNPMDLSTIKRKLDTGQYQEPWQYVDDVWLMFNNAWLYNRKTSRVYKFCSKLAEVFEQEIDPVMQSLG
Method in brief: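 Reactions at 30 °C for 35 min, then Ni-chelate acceptor and streptavidin donor beads in HEPES pH 7.5, NaCl, Tween20, BSA, 60 min at room temperature. Eight-point compound series; IC50 by non-linear regression of percent inhibition.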

THP-1 cells = assay: Cell growth inhibition assay (CellTiter-Glo), THP-1; details: for GI50: Homo sapiens, THP-1, read-out: THP-1 GI50; for THP-1 TGI: THP-1 cells, total growth inhibition, CellTiter-Glo;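 on all read-outs here: viability read as cellular ATP luminescence after 4 days, 3-fold dilution series from 10 µM, DMSO vehicle-treated cells taken as 100%, cell-free medium wells as −100%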

SMILES | GI50 (MV-4-11 cells) [nM] | MV-4-11 TGI (MV-4-11 cells) [nM] | IC50 [1] [nM] | GI50 (K-562 cells) [nM] | K-562 TGI (K-562 cells) [nM] | IC50 (BRD3 (His-Brd3(20-477))) [nM] | IC50 (BRD4 (His-Brd4(44-477))) [nM] | IC50 (BRD2 (His-Brd2(60-472))) [nM] | IC50 [2] [nM] | GI50 (THP-1 cells) [nM] | THP-1 TGI (THP-1 cells) [nM]
Cc1cc(N2C(=O)c3nc(C)n(C(C)C)c3C2c2ccc(Cl)cc2)cc2c1nnn2C (racemic) [Example 2, 6-(4-chlorophenyl)-5-(3,7-dimethyl-3H-benzo[d][1,2,3]triazol-5-yl)-1-isopropyl-2-methyl-5,6-dihydropyrrolo[3,4-d]imidazol-4(1H)-one] | 13.8 | 28.65 | 14.5 | 95.9 | >10000 | 15 | 20 | 33 | 8600 | 23.4 | 40.95
Cc1cc(N2C(=O)c3c(nc(C)n3C(C)C)C2c2ccc(Cl)cc2)cc2c1nnn2C (racemic) [Example 3, 6-(4-chlorophenyl)-5-(3,7-dimethyl-3H-benzo[d][1,2,3]triazol-5-yl)-3-isopropyl-2-methyl-5,6-dihydropyrrolo[3,4-d]imidazol-4(3H)-one] | 8.19 | 14.45 | 12.3 | 55.1 | >10000 | 12 | 15 | 27 | 2600 | 13.7 | 27.55
Cc1cc(N2C(=O)c3nc(C4CC4)n(C(C)C)c3C2c2ccc(Cl)cc2)cn2c(C)nnc12 (racemic) [Example 13, 6-(4-chlorophenyl)-2-cyclopropyl-5-(3,8-dimethyl-[1,2,4]triazolo[4,3-a]pyridin-6-yl)-1-isopropyl-5,6-dihydropyrrolo[3,4-d]imidazol-4(1H)-one] | 11.3 | 27.15 | 16.1 | 114 | >10000 | 39 | 37 | 41 | 4500 | 26.1 | 59.45
Cc1cc(N2C(=O)c3nc(C)n(C(C)C)c3C2c2ccc(Cl)cc2)nn2c(C)nnc12 (racemic) [Example 18, 6-(4-chlorophenyl)-5-(3,8-dimethyl-[1,2,4]triazolo[4,3-b]pyridazin-6-yl)-1-isopropyl-2-methyl-5,6-dihydropyrrolo[3,4-d]imidazol-4(1H)-one] | 11.2 | 26.95 | 7.55 | 91 | >10000 | 11 | 13 | 19 | 27700 | 15.9 | 35.6
COc1ccc(-c2nc3c([nH]2)C(c2ccc(Cl)cc2)N(c2cc(C)c(=O)n(C)c2)C3=O)cn1 (stereo not shown) [Example 4, 6-(4-chlorophenyl)-5-(1,5-dimethyl-6-oxo-1,6-dihydropyridin-3-yl)-2-(6-methoxypyridin-3-yl)-5,6-dihydropyrrolo[3,4-d]imidazol-4(1H)-one] | 69.5 | 116 | 74.7 | 254 | >10000 | 68 | 64 | 68 | 1400 | 110 | 207
COc1ccc(-c2nc3c([nH]2)[C@@H](c2ccc(Cl)cc2)N(c2cc(C)c(=O)n(C)c2)C3=O)cn1 [Example 5, (R)-6-(4-chlorophenyl)-5-(1,5-dimethyl-6-oxo-1,6-dihydropyridin-3-yl)-2-(6-methoxypyridin-3-yl)-5,6-dihydropyrrolo[3,4-d]imidazol-4(1H)-one] | 37.1 | 73.9 | 67 | 221 | >10000 | 38 | 30 | 32 | 560 | 60 | 106
COc1ccc(-c2nc3c(n2C)C(=O)N(c2cc(C)c(=O)n(C)c2)C3c2ccc(Cl)cc2)cn1 (stereo not shown) [Example 6, 6-(4-chlorophenyl)-5-(1,5-dimethyl-6-oxo-1,6-dihydropyridin-3-yl)-2-(6-methoxypyridin-3-yl)-3-methyl-5,6-dihydropyrrolo[3,4-d]imidazol-4(3H)-one] | 60.1 | 102 | 86.3 | 230 | >10000 | 88 | 92 | 88 | 2700 | 161 | 324
COc1ccc(-c2nc3c(n2C)C(=O)N(c2cc(C)c(=O)n(C)c2)[C@@H]3c2ccc(Cl)cc2)cn1 [Example 7, (R)-6-(4-chlorophenyl)-5-(1,5-dimethyl-6-oxo-1,6-dihydropyridin-3-yl)-2-(6-methoxypyridin-3-yl)-3-methyl-5,6-dihydropyrrolo[3,4-d]imidazol-4(3H)-one] | 44.6 | 85 | 73.5 | 170 | >10000 | 48 | 56 | 60 | 1500 | 65.5 | 111
COc1ccc(-c2nc3c(n2C)C(c2ccc(Cl)cc2)N(c2cc(C)c(=O)n(C)c2)C3=O)cn1 (stereo not shown) [Example 8, 6-(4-chlorophenyl)-5-(1,5-dimethyl-6-oxo-1,6-dihydropyridin-3-yl)-2-(6-methoxypyridin-3-yl)-1-methyl-5,6-dihydropyrrolo[3,4-d]imidazol-4(1H)-one] | 51 | 98 | 92 | 309 | >10000 | 79 | 86 | 91 | 970 | 152 | 314
COc1ccc(-c2nc3c(n2C(C)C)C(c2ccc(Cl)cc2)N(c2cc(C)c4nnc(C)n4c2)C3=O)cn1 (stereo not shown) [Example 9, 6-(4-chlorophenyl)-5-(3,8-dimethyl-[1,2,4]triazolo[4,3-a]pyridin-6-yl)-1-isopropyl-2-(6-methoxypyridin-3-yl)-5,6-dihydropyrrolo[3,4-d]imidazol-4(1H)-one] | 48.4 | 94.2 | 2090 | 258 | >10000 | 34 | 34 | 43 | > 37000 | 98.7 | 175
COc1ncc(-c2nc3c(n2C(C)C)C(c2ccc(Cl)cc2)N(c2cc(C)c4nnc(C)n4c2)C3=O)c(OC)n1 (stereo not shown) [Example 10, 6-(4-chlorophenyl)-2-(2,4-dimethoxypyrimidin-5-yl)-5-(3,8-dimethyl-[1,2,4]triazolo[4,3-a]pyridin-6-yl)-1-isopropyl-5,6-dihydropyrrolo[3,4-d]imidazol-4(1H)-one] | 29.7 | 78.5 | 180 | 326 | >10000 | 59 | 45 | 60 | 6300 | 158 | 302
Cc1cc(N2C(=O)c3nc(C4=CCOC4)n(C(C)C)c3C2c2ccc(Cl)cc2)cn2c(C)nnc12 (stereo not shown) [Example 11, 6-(4-chlorophenyl)-2-(2,5-dihydrofuran-3-yl)-5-(3,8-dimethyl-[1,2,4]triazolo[4,3-a]pyridin-6-yl)-1-isopropyl-5,6-dihydropyrrolo[3,4-d]imidazol-4(1H)-one] | 48.5 | 97.75 | 110 | 330 | >10000 | 25 | 18 | 41 | 5700 | 90.9 | 202.5
Cc1cc(N2C(=O)c3c(nc(C)n3C3CC3)C2c2ccc(Cl)cc2)cn2c(C)nnc12 (stereo not shown) [Example 115, 6-(4-chlorophenyl)-3-cyclopropyl-5-(3,8-dimethyl-[1,2,4]triazolo[4,3-a]pyridin-6-yl)-2-methyl-5,6-dihydropyrrolo[3,4-d]imidazol-4(3H)-one] | 10.3 | 17.7 | 20.5 | 102 | >10000 | 66 | 48 | 68 |  | 23.4 | 58.1
